Experiments:
[1] = test system: penile corpus cavernosum smooth muscles; experiment: Relaxation of phenylephrine-contracted penile corpus cavernosum smooth muscle sections in organ bath; set-up: species or system New Zealand white rabbit; settings: for Relaxation (%): conc. 10^−4 M, section contracted with 10^−4 M phenylephrine
From the text: A New Zealand white rabbit (2.5 to 3.0 kg) was anesthetized and the overall penis was then dissected from the rabbit. The penile corpus cavernosum smooth muscles were separated from the tunica albuginea in a low-temperature Tyrode's solution aerated with a 95% O2-5% CO2 gas mixture, while observing with a dissection microscope, to prepare a penis section. The penis section was fixed in an organ bath (10 cc) containing a Tyrode's solution. At this time, the one end of the penis section was fixed on the bottom of the organ bath, and a variation in isometric tension of the penile corpus cavernosum smooth muscles was then measured with a force displacement transducer at the other end thereof. After reaching an equilibrium state, the penile section was contracted by treatment of 10^−4 M phenylephrine.
According to the drug used to treat the penile section, the experimental groups used herein were divided into six groups, i.e., i) a group with administration of SNP as a NO donor, ii) a group with administration of Zaprinast as an inhibitor against PDE-5, an enzyme that mediates hydrolysis of c-GMP, a group with administration of acetylcholine that acts on the nervous system, iv) a group with administration of metformin, one of conventional AMPK activators, v) a group with administration of AICAR (5-aminoimidazole-4-carboxamide-1-beta-D-ribofuranoside), and vi) a group with administration of the compound 1 according to the present invention. These groups were compared with one another, in view of relaxation (%) of the penile corpus cavernosum.

[2] = test system: diabetes-induced rats; experiment: Internal pressure of penile corpus cavernosum after electrostimulation in STZ diabetes-induced rats; assay type: in vivo, Sprague-Dawley white rats; settings: oral for 5 weeks, AICAR 500 mg/kg, compound 1 250 mg/kg, FIG. 7
From the text: In order to confirm in vivo whether penile erection of a diabetes-induced rat has an influence on the internal pressure of the penile corpus cavernosum, 23 Sprague-Dawley white rats (about 300 g) are divided into a normal control group (Group I, n=6), a diabetes-induced control group (Group II, n=4), a group with administration of AICAR following the diabetes-induction (Group III, n=6), and a group with administration of the compound 1 (Group IV, n=7).
STZ (streptozotocin) was used to induce diabetes, and the AICAR and the compound 1 were orally administered in dosages of 500 mg/kg and 250 mg/kg, respectively, for 5 weeks. Each of the experimental groups was systemically anesthetized, intubated into one-side of the carotid in order to measure blood pressure, a electrostimulation-purpose catheter was set in the penile corpus cavernosum nerves in the cavum pelvis, and the internal pressure of the penile corpus cavernosum was measured. Electrostimulation was applied to the group for one minute (frequency: 10 Hz, delay: 4 ms, duration: 5 ms, volt: 3V). An increase in internal pressure of the groups was measured, and the groups were compared with one another in view of the increase in internal pressure.

[3] = test system: endothelial nitric oxide synthase (eNOS); experiment: Phosphorylation of eNOS in HUVEC cells (anti-pS1177 eNOS); assay type: cell-based; settings: compound 1 10 uM, FIG. 3
Description: In order to ascertain whether the compound 1 acting as an AMPK activator is implicated in the production of NO, phosphorylation to promote the activity of endothelial nitric oxide synthase (eNOS) was measured. So as to confirm the phosphorylation of eNOS through the compound 1, HUVEC cells were seeded on a 60 mm plate at 1×10^5 in an EBM2/5% FBS medium and cultured for 24 hours. The medium was replaced by a serum-free EBM2 medium and the treatment with the compound 1 (10 uM) was performed for a predetermined period. An anti-pS1177 eNOS was used to measure the phosphorylated eNOS.

[4] = test system: penile corpus cavernosum smooth muscles; experiment: Compound 1-induced relaxation upon blocking of the NO pathway (L-NAME, methylene blue); set-up: species or system New Zealand white rabbit; settings: FIG. 4
From the text: To confirm the effects of the compound 1 on relaxation of the penile corpus cavernosum smooth muscles upon blocking of a NO pathway, the penile corpus cavernosum smooth muscle sections were contracted by the treatment of phenylephrine, relaxed by the treatment of the compound 1, and then sequentially treated with methylene blue as an inhibitor against guanylate cyclase that helps production of c-GMP and with L-NAME (L-nitroarginine methyl ester) that inhibits production of NO via inhibitory activity against eNOS.

[5] = test system: penile corpus cavernosum smooth muscles; experiment: Compound 1-induced relaxation after endothelium removal (CHAPS) and HO-2 inactivation (ZnPP); set-up: species or system New Zealand white rabbits
From the text: To ascertain the pharmacological mechanism the compound 1 acts on the relaxation of the penile corpus cavernosum smooth muscles in the New Zealand white rabbits, the smooth muscle sections were relaxed by the treatment of the compound 1 and endothelial cells were then removed from the smooth muscle sections using 10^−4 M of CHAPS (3-[(3-cholamidopropyl) dimethylammonio]-1-propanesulfonate, 0.3% in buffer solution; Sigma) as a lysis buffer. Subsequently, as another neurotransmitter, zinc-protoporphyrin-IX (ZnPP) was administrated thereto, which inactivates heme oxygenase-2 (HO-2) that produces carbon monoxide (CO) that is in vivo produced by blood and acts as a vasodilator.

[6] = target: Phosphodiesterase type 5 (PDE 5) (Homo sapiens, UniProt O76074); settings: cited from earlier work

## NC(=O)c1ncn([C@@H]2O[C@H](CO)[C@@H](O)[C@H]2O)c1N [AICAR, 5-aminoimidazole-4-carboxamide-1-beta-D-ribofuranoside, reference compound]
[1]
  Relaxation (%): 10%
[2]
  average of the highest internal pressure increase of the penile corpus cavernosum after electrostimulation: 4.3±1.0 mmHg

## CC(=O)OCC[N+](C)(C)C [Acetylcholine, acetylcholine]
[1]
  Relaxation (%): 21%

## CC1(C)CCC2=C(O1)c1ccccc1C(=O)C2=O [Compound 1, β-lapachone]
[1]
  Relaxation (%): 92%
[1]; concentration range of 10^−9 to 10^−7 M
  relaxation effects of penile corpus cavernosum smooth muscles (FIG. 2): about double that of the SNP-administration group
[3]; 2 hours
  phosphorylation of eNOS (p-eNOS) at 2 hours: not observed
[3]
  time at which phosphorylation of eNOS (p-eNOS) is maximized: 30 min
[4]; 10^−3 M of L-NAME and 10^−3 M of methylene blue
  relaxation caused by the compound 1 after L-NAME and methylene blue: partially inhibited
[4]; methylene blue 10^−4 M
  inhibition of relaxation by methylene blue compared to the L-NAME-treatment group: more greatly inhibited
[5]; 10^−4 M CHAPS, endothelial cells removed
  relaxation of the CHAPS-administration group (no Znpp) relative to relaxation of the compound 1-administration group: about 45%
[5]; CHAPS plus zinc-protoporphyrin-IX (ZnPP), FIGS. 5 and 6
  relaxation of the ZnPP-administration group: almost completely inhibited
[2]
  average of the highest internal pressure increase of the penile corpus cavernosum after electrostimulation: 9.7±5.1 mmHg

## CN(C)C(=N)N=C(N)N [Metformin, metformin]
[1]
  Relaxation (%): 0.1%

## CCCc1nn(C)c2c(=O)[nH]c(-c3cc(S(=O)(=O)N4CCN(C)CC4)ccc3OCC)nc12 [Viagra]
[6]
  selectivity of PDE 5 inhibition: ≥ 4,000 folds

## CCCOc1ccccc1-c1nc2nn[nH]c2c(=O)[nH]1 [Zaprinast]
[1]
  Relaxation (%): 36%

From patent publication US20120114714A1, “METHOD FOR THE TREATMENT AND PREVENTION OF ERECTILE DYSFUNCTION” (priority 2006, published 2012)
